According to patent publication US20230080054A1 (ILDONG PHARMACEUTICAL CO., LTD., priority 2021, published 2023):

Molecular target: T1, human ANO6 (Homo sapiens, UniProt Q4KMQ2)
T1 construct: expressed in transfected cells
T1 sequence (Q4KMQ2 1-931 isoform Q4KMQ2-2): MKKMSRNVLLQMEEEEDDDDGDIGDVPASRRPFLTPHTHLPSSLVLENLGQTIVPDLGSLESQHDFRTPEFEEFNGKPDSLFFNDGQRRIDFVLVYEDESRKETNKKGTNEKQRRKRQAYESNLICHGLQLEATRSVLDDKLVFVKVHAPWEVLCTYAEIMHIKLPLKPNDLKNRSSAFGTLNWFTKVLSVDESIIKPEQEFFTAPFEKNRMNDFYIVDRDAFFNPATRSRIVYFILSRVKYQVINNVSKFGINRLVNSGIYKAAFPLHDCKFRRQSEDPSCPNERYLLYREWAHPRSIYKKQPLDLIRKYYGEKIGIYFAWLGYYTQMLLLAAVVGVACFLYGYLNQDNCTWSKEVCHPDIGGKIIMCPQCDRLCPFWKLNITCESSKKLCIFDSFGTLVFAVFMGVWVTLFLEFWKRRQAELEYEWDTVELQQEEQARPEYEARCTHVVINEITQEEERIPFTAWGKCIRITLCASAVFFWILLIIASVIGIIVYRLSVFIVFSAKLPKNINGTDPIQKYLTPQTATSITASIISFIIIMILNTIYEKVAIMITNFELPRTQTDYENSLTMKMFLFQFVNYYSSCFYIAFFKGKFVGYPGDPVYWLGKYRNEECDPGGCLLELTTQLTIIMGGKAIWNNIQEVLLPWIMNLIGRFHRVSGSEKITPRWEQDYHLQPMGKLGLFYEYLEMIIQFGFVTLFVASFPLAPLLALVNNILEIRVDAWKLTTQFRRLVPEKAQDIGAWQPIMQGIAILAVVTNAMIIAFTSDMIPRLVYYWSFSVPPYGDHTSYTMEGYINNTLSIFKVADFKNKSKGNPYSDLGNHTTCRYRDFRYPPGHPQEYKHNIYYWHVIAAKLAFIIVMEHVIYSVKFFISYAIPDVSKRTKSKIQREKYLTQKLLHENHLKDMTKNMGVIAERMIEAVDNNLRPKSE
Test: LACT C2 assay (phosphatidylserine scramblase function assay)
Format: cell-based
Conditions: FRT cells expressing human ANO6, 10 μM ionomycin; for inhibition at 0.1 µM: test compound 100 nM, read-out: Inhibition Level 100 nM; for inhibition at 1 µM: test compound 1 μM, read-out: Inhibition Level 1 μM
Excerpt: Phosphatidylserine Scramblase Function Assay
1. Materials and Instruments
Ionomycin (Alomonelab, cat. #I-700), DAPI (Sigma-Aldrich, cat. #D8417), paraformaldehyde (Biosesang, cat. #P2031), Lionheart FX Automated Microscope (BioTek, Winooski), Python3 (Python Software Foundation), and OpenCV (Open Source Computer Vision Library).
Fisher rat thyroid (FRT) cells stably expressing human ANO6 (GenBank accession no. NP_001191732.1, provided by J. H. Nam, Dongguk University College of Medicine, Korea) were grown in DMEM/Ham's F-12 (1:1) medium with 10% FBS, 2 mM L-549 glutamine, 100 units/mL penicillin, and 100 μg/mL streptomycin at 37° C. and 5% CO2.
FRT cells stably expressing human ANO6 were plated in 96 well black-walled microplates at a density of 2×10^4 cells/well. After 24 hours incubation, cells were treated with the test compound (dissolved in DMSO) were treated to each well to become 1% v/v DMSO for 10 minutes, then 10 μM of ionomycin was applied. Finally each well was washed with 200 μL PBS after 10 minutes. After washout, the phosphatidylserine and nuclei were stained with PBS containing 500 nM Lactadherin-C2 (Lact-C2)-GFP, then cells were washed with 200 μL PBS. Cells were fixed with 4% paraformaldehyde for 5 minutes at room temperature. For morphological analysis, some cells were stained with fluorescently labelled DAPI for 15 minutes at room temperature. Quantitative analysis of the fluorescence intensity of Lact-C2-GFP was performed with Python3 and OpenCV. OpenCV was used to remove background and noise pixels, and the sum of all remaining pixel values was used to evaluate the fluorescence intensity of Lact-C2-GFP.
The inhibitory activity (%) of each of the test compounds was obtained by the following steps. In each row of 96 well plate, the inhibitory activity of each of the test compounds was calculated as percentages. The inhibitory activity of a negative control group to which neither compounds nor ionomycin were treated was set to be 100%, and the inhibitory activity of a positive control group to which ionomycin was treated and compounds were not treated was set to be 0%. The assay was performed in triplicate, and the results were averaged.

inhibition at 0.1 µM	inhibition at 1 µM	SMILES
< 30%	30 to 60%	O=C(NC1(c2ccccc2)CC1)c1cccc(Nc2ncc(-c3cccc(F)c3)cn2)c1 [Compound 133, 3-((5-(3-fluorophenyl)pyrimidin-2-yl)amino)-N-(1-phenylcyclopropyl)benzamide]
< 30%	30 to 60%	O=C(NCc1ccccc1C(F)(F)F)c1cccc(Nc2ncc(-c3cccc(F)c3)cn2)c1 [Compound 204, 3-((5-(3-fluorophenyl)pyrimidin-2-yl)amino)-N-(2-(trifluoromethyl)benzyl)benzamide]
< 30%	< 30%	Cc1c(C2CC2NC(=O)c2cccc(Nc3ncc(-c4ccccc4)cn3)c2)cnn1C (centres unmarked) [Compound 152, N-(2-(1,5-dimethyl-1H-pyrazol-4-yl)cyclopropyl)-3-((5-phenylpyrimidin-2-yl)amino)benzamide]
< 30%	< 30%	CN1CCC(CNC(=O)c2cccc(Nc3ccc(-c4cccc(F)c4)cn3)c2)C1 (centres unmarked) [Compound 145, 3-((5-(3-fluorophenyl)pyridin-2-yl)amino)-N-((1-methylpyrrolidin-3-yl)methyl)benzamide]
< 30%	–	O=C(N[C@@H]1C[C@H]1c1ccccc1)C12CCC(Nc3ccc(-c4ccccc4)nn3)(CC1)C2 [Compound 168, (1s,4s)-N-((1R,2S)-2-phenylcyclopropyl)-4-((6-phenylpyridazin-3-yl)amino)bicyclo[2.2.1]heptane-1-carboxamide]
≥ 60%	≥ 60%	O=C(N[C@@H]1C[C@H]1c1ccc(F)cc1)c1cccc(Nc2ccc(-c3ccccc3)nn2)c1 [Compound 199]
< 30%	≥ 60%	O=C(NCc1ccc(F)cc1Br)c1cccc(Nc2ccc(-c3ccccc3)nn2)c1 [Compound 200, N-(2-bromo-4-fluorobenzyl)-3-((6-phenylpyridazin-3-yl)amino)benzamide]
< 30%	< 30%	O=C(NCc1ccc(F)cc1F)c1cccc(Nc2ncc(-c3cccc(F)c3)cn2)c1 [Compound 215, N-(2,4-difluorobenzyl)-3-((5-(3-fluorophenyl)pyrimidin-2-yl)amino)benzamide]
< 30%	< 30%	O=C(NCC1(O)CC1)c1cccc(Nc2ccc(-c3ccccc3)nn2)c1 [Compound 237, N-((1-hydroxycyclopropyl)methyl)-3-((6-phenylpyridazin-3-yl)amino)benzamide]
< 30%	≥ 60%	O=C(Nc1nccs1)c1cccc(Nc2ncc(-c3cccc(F)c3)cn2)c1 [Compound 138, 3-((5-(3-fluorophenyl)pyrimidin-2-yl)amino)-N-(thiazol-2-yl)benzamide]
< 30%	≥ 60%	O=C(N[C@@H]1C[C@H]1c1ccc(Cl)c(F)c1)c1cccc(Nc2ncc(-c3cccc(F)c3)cn2)c1 [Compound 131, N-((1R,2S)-2-(4-chloro-3-fluorophenyl)cyclopropyl)-3-((5-(3-fluorophenyl)pyrimidin-2-yl)amino)benzamide]
30 to 60%	–	O=C(N[C@@H]1C[C@H]1c1ccccc1)c1ccnc(Nc2ncc(-c3ccccc3)cn2)c1 [Compound 178, N-((1R,2S)-2-phenylcyclopropyl)-2-((5-phenylpyrimidin-2-yl)amino)isonicotinamide]
< 30%	≥ 60%	O=C(NCCc1ccc(F)cc1)c1cccc(Nc2ccc(-c3ccccc3)nn2)c1 [Compound 198, N-(4-fluorophenethyl)-3-((6-phenylpyridazin-3-yl)amino)benzamide]
< 30%	–	CNc1cccc(NC(=O)c2cccc(Nc3ncc(-c4cccc(F)c4)cn3)c2)c1 [Compound 177, 3-((5-(3-fluorophenyl)pyrimidin-2-yl)amino)-N-(3-(methylamino)phenyl)benzamide]
< 30%	< 30%	O=C(NCc1ccccc1Br)c1cccc(Nc2ncc(-c3cccc(F)c3)cn2)c1 [Compound 216, N-(2-bromobenzyl)-3-((5-(3-fluorophenyl)pyrimidin-2-yl)amino)benzamide]
< 30%	–	O=C(Nc1cccc(F)c1)c1cccc(NC2CCC(c3ccccc3)C2)c1 (centres unmarked) [Compound 187, N-(3-fluorophenyl)-3-((3-phenylcyclopentyl)amino)benzamide]
< 30%	< 30%	CN1CCC(CCNC(=O)c2cccc(Nc3ccc(-c4cccc(F)c4)cn3)c2)CC1 [Compound 139, 3-((5-(3-fluorophenyl)pyridin-2-yl)amino)-N-(2-(1-methylpiperidin-4-yl)ethyl)benzamide]
< 30%	30 to 60%	O=C(NCc1ccc(Cl)cc1Cl)c1cccc(Nc2ncc(-c3cccc(F)c3)cn2)c1 [Compound 207, N-(2,4-dichlorobenzyl)-3-((5-(3-fluorophenyl)pyrimidin-2-yl)amino)benzamide]
< 30%	30 to 60%	CC(C)(NC(=O)c1cccc(Nc2ccc(-c3ccccc3)nn2)c1)c1ccc(F)cc1 [Compound 213, N-(2-(4-fluorophenyl)propan-2-yl)-3-((6-phenylpyridazin-3-yl)amino)benzamide]
< 30%	< 30%	CN1CCC(CNC(=O)c2cccc(Nc3ccc(-c4cccc(F)c4)cn3)c2)CC1 [Compound 140, 3-((5-(3-fluorophenyl)pyridin-2-yl)amino)-N-((1-methylpiperidin-4-yl)methyl)benzamide]
< 30%	30 to 60%	O=C(N[C@@H]1C[C@H]1c1ccccc1)c1cncc(Nc2ncc(-c3ccccc3)cn2)c1 [Compound 156, N-((1R,2S)-2-phenylcyclopropyl)-5-((5-phenylpyrimidin-2-yl)amino)nicotinamide]
< 30%	30 to 60%	O=C(NCc1ccc(C(F)(F)F)cc1)c1cccc(Nc2ncc(-c3cccc(F)c3)cn2)c1 [Compound 202, 3-((5-(3-fluorophenyl)pyrimidin-2-yl)amino)-N-(4-(trifluoromethyl)benzyl)benzamide]
< 30%	< 30%	O=C(NC1(CO)CC1)c1cccc(Nc2ccc(-c3ccccc3)nn2)c1 [Compound 228, N-(1-(hydroxymethyl)cyclopropyl)-3-((6-phenylpyridazin-3-yl)amino)benzamide]
< 30%	< 30%	Cc1c(C2CC2NC(=O)c2cccc(Nc3ncc(-c4cccc(F)c4)cn3)c2)cnn1C (centres unmarked) [Compound 150, N-(2-(1,5-dimethyl-1H-pyrazol-4-yl)cyclopropyl)-3-((5-(3-fluorophenyl)pyrimidin-2-yl)amino)benzamide]
< 30%	< 30%	O=C(NCc1cc(F)c(F)cc1F)c1cccc(Nc2ncc(-c3cccc(F)c3)cn2)c1 [Compound 209, 3-((5-(3-fluorophenyl)pyrimidin-2-yl)amino)-N-(2,4,5-trifluorobenzyl)benzamide]
< 30%	–	O=C(N[C@@H]1C[C@H]1c1ccccc1)C12CC3CC(CC(Nc4ccc(-c5ccccc5)nn4)(C3)C1)C2 [Compound 166, N-((1R,2S)-2-phenylcyclopropyl)-3-((6-phenylpyridazin-3-yl)amino)adamantane-1-carboxamide]
